Results: publication PMC10786919, “Design-rules for stapled peptides with in vivo activity and their application to Mdm2/X antagonists” (Nature Communications, 2024)
Values after ≈ are worked out from the molar mass of the structure shown. Read-outs that look alike come from different tables or passages of the source. Positions of bridges follow the written chain, without caps; N, C: chain ends. Non-standard residues stand in square brackets, D forms with d. Residues, ends and D or L forms follow the SMILES beside them. Lys(N3) = [N-]=[N+]=NCCCC[C@H](N)C(=O)O; R8 = C=CCCCCCC[C@@](C)(N)C(=O)O; Cba = N[C@@H](CC1CCC1)C(=O)O; S5 = C=CCCC[C@](C)(N)C(=O)O; βAla = NCCC(=O)O

Key:
physchem [1] = assay: physchem
[2] = Lactate dehydrogenase (LDH) release assay; format: cell-based
In short: (§1)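 HCT116 cells stably carrying a p53-responsive β-lactamase reporter, seeded at 8000 cells/well, exposed to compound with 0.5% final DMSO. LDH release read with the CytoTox-ONE membrane integrity kit. Values are geometric means of at least three biological replicates.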

HCT116 cells = assay: Lactate dehydrogenase (LDH) release assay; format: cell-based
In short: as §1

[3] = Solubility assay (kinetic solubility, PBS pH 7); format: physicochemical; conditions: pH 7, aqueous buffer, kinetic from dmso stock, pH 7, PBS; read-out: Solubility
In short: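 Std: 10 mM stock → 100 µM in ACN/MeOH/DMSO (10:80:10). Sol. [µM] = (sample peak area / std peak area) × std conc.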

[4] = Experimental LogD (partition coefficient); conditions: not stated, Partition Coeff LogD
physchem [5] = assay: physchem; remark: listed apart in the source
[6] = Nanoclick permeability assay
In short: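 Azido-peptide permeability was read as loss of NanoBRET signal (donor 450 nm, acceptor 610 nm) after adding NanoBret618-azide at 10 μM final.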

SMILES	EPSA (physchem [1])	EC50 ([2]; LDH: Cytotoxicity assay: EC50)	LDH: Cytotoxicity assay: % Effect (HCT116 cells)	solubility kinetic [3]	logD [4]	EPSA (physchem [5])	EC50 ([2]; 0% FBS 4Hr, read-out: LDH: Cytotoxicity assay EC50)	EC50 ([2]; 10% FBS 4Hr, read-out: LDH: Cytotoxicity assay EC50)	LDH: Cytotoxicity assay % Effect (HCT116 cells; 0% FBS 4Hr)	LDH: Cytotoxicity assay % Effect (HCT116 cells; 10% FBS 4Hr)	cell entry EC50 [6]
CC(=O)N[C@@H](C)C(=O)N[C@@H](C)C(=O)N[C@@H](C)C(=O)N[C@@H](C)C(=O)N[C@@H](CC(C)C)C(=O)N[C@H](C(=O)N[C@@H](Cc1ccccc1)C(=O)N[C@]1(C)CCCCCCC=CCCC[C@@](C)(C(=O)N[C@@H](CO)C(=O)N[C@@H](C)C(=O)N[C@@H](C)C(N)=O)NC(=O)[C@H](CC2CCC2)NC(=O)[C@H](CCC(N)=O)NC(=O)[C@H](C)NC(=O)[C@H](Cc2c[nH]c3ccccc23)NC(=O)[C@H](Cc2ccc(O)cc2)NC(=O)[C@H](CCC(=O)O)NC1=O)[C@@H](C)O [MP-360]	219 A^2	> 50.6 µM	2.492%	24.7 µM (≈ 50.1 µg/mL)	3.24						
CC(=O)N(C)CC(=O)N(C)CC(=O)N(C)CC(=O)N(C)CC(=O)N[C@@H](CC(C)C)C(=O)N[C@H](C(=O)N[C@@H](Cc1ccccc1)C(=O)N[C@]1(C)CCCCCCC=CCCC[C@@](C)(C(=O)N[C@@H](CO)C(=O)N[C@@H](C)C(=O)N[C@@H](C)C(N)=O)NC(=O)[C@H](CC2CCC2)NC(=O)[C@H](CCC(N)=O)NC(=O)[C@H](C)NC(=O)[C@H](Cc2c[nH]c3ccccc23)NC(=O)[C@H](Cc2ccc(O)cc2)NC(=O)[C@H](CCC(=O)O)NC1=O)[C@@H](C)O [MP-361]	212 A^2	> 50.6 µM	2.48%	70.7 µM (≈ 143 µg/mL)	2.52						
CC(=O)N[C@@H](CC(C)C)C(=O)N[C@H](C(=O)N[C@@H](Cc1ccccc1)C(=O)N[C@]1(C)CCCCCCC=CCCC[C@@](C)(C(=O)N[C@@H](CO)C(=O)N[C@@H](C)C(=O)N[C@@H](C)C(N)=O)NC(=O)[C@H](CC2CCC2)NC(=O)[C@H](CC(C)C)NC(=O)[C@H](CCC(N)=O)NC(=O)[C@H](Cc2c[nH]c3ccccc23)NC(=O)[C@H](C)NC(=O)[C@H](CCC(=O)O)NC1=O)[C@@H](C)O [MP-363] (Ac-LTF[R8]EAWQL[Cba][S5]SAA-NH2; staple 4-11)	195 A^2	> 50.6 µM	4.97%		2.85						
CC(=O)N[C@@H](CC(C)C)C(=O)N[C@H](C(=O)N[C@@H](Cc1ccccc1)C(=O)N[C@]1(C)CCCCCCC=CCCC[C@@](C)(C(=O)N[C@@H](CO)C(=O)N[C@@H](C)C(=O)N[C@@H](C)C(N)=O)NC(=O)[C@H](CC2CCC2)NC(=O)[C@H](CCC(N)=O)NC(=O)[C@H](CCC(N)=O)NC(=O)[C@H](Cc2c[nH]c3ccccc23)NC(=O)[C@H](Cc2ccc(O)cc2)NC(=O)[C@H](CCC(=O)O)NC1=O)[C@@H](C)O [MP-864] (Ac-LTF[R8]EYWQQ[Cba][S5]SAA-NH2; staple 4-11)	212 A^2	> 50.6 µM		86.5 µM (≈ 156 µg/mL)	2.59						
CC(=O)N[C@@H](CC(C)C)C(=O)N[C@H](C(=O)N[C@@H](Cc1ccccc1)C(=O)N[C@]1(C)CCCCCCC=CCCC[C@@](C)(C(=O)N[C@@H](CO)C(=O)N[C@@H](C)C(=O)N[C@@H](C)C(N)=O)NC(=O)[C@H](CC2CCC2)NC(=O)[C@H](C)NC(=O)[C@H](C)NC(=O)[C@H](Cc2c[nH]c3ccccc23)NC(=O)[C@H](Cc2ccc(O)cc2)NC(=O)[C@H](CCC(=O)O)NC1=O)[C@@H](C)O [MP-865] (Ac-LTF[R8]EYWAA[Cba][S5]SAA-NH2; staple 4-11)	211 A^2	> 50.6 µM		84.5 µM (≈ 143 µg/mL)	2.94						
CC(=O)N[C@@H](CCCCN=[N+]=[N-])C(=O)NCCC(=O)N[C@@H](CC(C)C)C(=O)N[C@H](C(=O)N[C@@H](Cc1ccccc1)C(=O)N[C@]1(C)CCCCCCC=CCCC[C@@](C)(C(=O)N[C@@H](C)C(=O)N[C@@H](C)C(=O)N[C@@H](C)C(N)=O)NC(=O)[C@H](CC2CCC2)NC(=O)[C@H](C)NC(=O)[C@H](C)NC(=O)[C@H](Cc2c[nH]c3ccccc23)NC(=O)[C@H](Cc2ccc(O)cc2)NC(=O)[C@H](CCC(=O)O)NC1=O)[C@@H](C)O [MP-8966, AZIDE-ATSP-7041 (Q9A,S12A)] (Ac-[Lys(N3)][βAla]LTF[R8]EYWAA[Cba][S5]AAA-NH2; staple 6-13)				111 µM (≈ 211 µg/mL)	2.92	215 A^2	> 50 µM	> 50 µM	5.4%	4.079%	0.203 µM
